Test results published in patent publication US20250235457A1, “METHODS AND COMPOSITIONS FOR TREATING CDKL5 DISORDER USING ALLOPURINOL” (priority 2024, published 2025).

Experiments:
CDKL5-deficient mice [1] = test: Hind limb clasping test; type: in vivo; settings: Het CDKL5-deficient mice before vs after treatment, 5 and 10 days oral (FIG. 9)
Procedure: The hind limb clasping test was performed to assess motor function and neurological impairments in CDKL5-deficient mouse models before and after treatment with allopurinol. […] Mice were suspended by their tails for a duration of 2 minutes, and hind limb retraction behavior (referred to as clasping) was recorded. Video recordings were analyzed to determine total clasping time during the test. Each mouse was evaluated using a standardized scoring system based on the severity of hind limb clasping behavior: • 0. No limb clasping observed. • 1.
Testing was conducted at baseline (pre-treatment) and at 5 and 10 days following oral administration of allopurinol. The hind limb clasping scores were averaged for each group, and the results were analyzed to assess changes in motor impairments following treatment.

[2] = system: patient with CDKL5 deficiency disorder (CDD); test: Off-label allopurinol treatment of a pediatric patient with CDD (case); type: in vivo, human
Text: CDD is a severe neurodevelopmental disorder characterized by treatment-resistant epilepsy, profound developmental delays, and significant motor impairments.
The patient presented with severe developmental delays since birth and had never met motor or speech milestones. […] The patient also experienced frequent, uncontrolled seizures despite being on a ketogenic diet and receiving physical, occupational, speech, and vision therapies. Their seizures were refractory to multiple anti-epileptic drugs (AEDs), including Keppra, Epidiolex, Soticlestat, Clonazepam, Sabril, Phenobarbital, and Oxcarbazepine.
Baseline assessments conducted prior to treatment initiation included a review of medical history, physical examination, laboratory tests, and functional evaluations.
Allopurinol was prescribed as an adjunct therapy to the patient's existing seizure management regimen without modifications to their ongoing AED treatments or dietary plan. The treatment protocol involved administering allopurinol at a dose of 100 mg per day, divided into two doses of 50 mg with lunch and 50 mg with dinner. The patient's progress was monitored over a 24-week period, unless adverse events necessitated an adjustment or discontinuation of the treatment. Caregivers maintained a daily diary to document seizure frequency, duration, and type, as well as changes in behavior, communication attempts, motor abilities, urine output, and general health.
Clinical assessments were conducted every four weeks, either virtually or in-person, to monitor safety and efficacy. Laboratory tests were performed every six weeks to evaluate uric acid levels, urinalysis, complete blood count (“CBC”), blood sugar levels, and other relevant indicators. EEG assessments were conducted at baseline, at eight-week intervals, and at the end of the study to evaluate changes in seizure activity and brain function. Regular evaluations by a pediatric neuro-ophthalmologist were included to assess visual and neurological health.
During the study, therapeutic interventions such as speech therapy, physical therapy, and the use of augmentative and alternative communication (AAC) devices were continued. Specific goals included improving functional communication through AAC, enhancing motor control, and increasing engagement with therapy activities. Progress in these areas was tracked alongside clinical outcomes to assess the comprehensive impact of allopurinol on the patient's quality of life.
At the time of treatment initiation, the patient weighed 18 kg. […] The end-of-study assessment included a final medical evaluation, EEG, laboratory tests, and a review of therapy outcomes to measure the safety and efficacy of allopurinol as a treatment for CDD.

CDKL2 = test: qPCR of CDKL2 expression in the treated patient; type: in vivo, human
[3] = system: phosphorylation of key synaptic proteins, including EB2 (MAPRE2); test: Neuronal cultures derived from CDKL5-deficient models; type: cell-based
[4] = system: CDKL2 and GluN2B subunits in the hippocampal and cortical regions; test: Histological / immunohistochemical analysis of brain tissue of CDKL5 Het mice; type: in vivo; settings: treated animals, 30 mg/kg/day
Procedure: In addition to the clinical trial, a preclinical animal study was conducted using a mouse model of CDKL5 disorder (CDKL5 Het female mice). A total of eight mice were included in the study, with four receiving treatment and four serving as untreated controls. All mice were housed under standard laboratory conditions with a 12-hour light/dark cycle and ad libitum access to food and water. The treatment protocol involved the oral administration of allopurinol dissolved in drinking water at a target dose of 30 mg/kg/day. The solution was prepared in phosphate-buffered saline (PBS) with a concentration of 0.1 mg/mL allopurinol in a 1:10 solution of dimethyl sulfoxide (DMSO):PBS (pH 7.2). Control animals received an identical solution without allopurinol. Seizure activity was monitored daily throughout the study, with seizure severity and duration recorded using both video and electroencephalogram assessments. At the end of the study, brain tissue from both treated and untreated animals was collected for histological analysis, specifically to assess the expression of CDKL2 and GluN2B subunits in the hippocampal and cortical regions. Immunohistochemical staining was used to visualize the localization and abundance of these proteins. Data from the seizure monitoring were analyzed using an unpaired t-test, and histological data were quantified using image analysis software. […]

[5] = 1:10 solution of DMSO:PBS (pH 7.2); 'believed to be approximately'; cited from earlier work
CDKL5-deficient mice [6] = test: Marble burying test
[7] = system: pediatric patients diagnosed with CDKL5 disorder; test: Prospective open-label clinical trial in pediatric patients with CDKL5 disorder; type: in vivo, human
Procedure: For the clinical trial, a prospective, open-label study was conducted between Aug. 1, 2023, and May 1, 2024, to evaluate the efficacy of allopurinol in pediatric patients diagnosed with CDKL5 disorder. The trial enrolled eight patients, aged 2 to 10 years, with a confirmed diagnosis of CDKL5 disorder and ongoing epilepsy that was resistant to conventional anti-epileptic drugs. Patients were required to have a stable seizure regimen for at least four weeks prior to participation. Those with a history of severe allergic reactions to allopurinol or other contraindicating medical conditions were excluded from the study. All patients were treated with allopurinol as an adjunct therapy to their existing anti-epileptic drug regimen, with the starting dose set at 10 mg/kg/day, administered orally in divided doses (twice daily, BID). The dosage was adjusted based on individual tolerability, and all treatment was closely supervised by a pediatric neurologist specializing in seizure disorders. Seizure frequency and severity were assessed at baseline and then at 4-week intervals throughout the 9-month study period. The primary endpoint of the study was the reduction in the frequency of major motor seizures, which was assessed using patient diaries and caregiver reports. Secondary endpoints included the severity of seizures (measured by the Modified Rankin Scale), overall neurological improvement, and quality of life, evaluated using the CDKL5 Disorder Disease-Specific Quality of Life (CDKL5-QoL) questionnaire. Statistical analysis was performed using paired t-tests to compare seizure frequency data between baseline and post-treatment periods, with a significance level set at p<0.05.

CDKL5 Het female mice = test: Seizure monitoring (video and EEG) in CDKL5 Het female mice; type: in vivo; settings: 30 mg/kg/day in drinking water, treated vs untreated controls
Text: A p-value of <0.05 was considered statistically significant.

[8] = system: EB2 (MAPRE2) phosphorylation at phospho-Serine 222; test: Western blot of EB2 phosphorylation in brain tissue of CDKL5-deficient mice; settings: 10 days
[9] = 100 mg per day, 24-week study period

## Oc1ncnc2[nH]ncc12 [allopurinol]
CDKL5-deficient mice [1]
  hind limb clasping behavior: significant reduction in hind limb clasping behavior
[2]; 100 mg per day adjunct, with a reduction in epileptic discharges
  EEG background activity: marked improvement
[2]; [9]
  adverse effects: No adverse effects were reported
  tolerability: well tolerated
[2]; 3 months after treatment, before treatment 1, lower desirable
  CDKL5 Severity Scale Part 3 (Caregiver Report): 0
[2]; 3 months after treatment, before treatment 2, higher desirable
  CDKL5 Severity Scale Part 6 (Motor Skills): 4
[2]; 3 months after treatment, before treatment 25, lower desirable
  CDKL5 Severity Scale Part 4 (Clinician Report): 25
[2]; 3 months after treatment, before treatment 29, lower desirable
  CDKL5 Severity Scale Part 2 (Seizure Activity): 29
[2]; 3 months after treatment, before treatment 32, lower desirable
  CDKL5 Severity Scale Part 1 (General Health): 21
[2]; 3 months after treatment, before treatment 104
  CDKL5 Severity Scale Total Score: 69
[2]; 3 months after treatment, before treatment −1, higher desirable
  CDKL5 Severity Scale Part 5 (Behavioral Skills): 8
[2]; person, 100 mg per day adjunct, after 3 months
  seizure status: completely seizure-free
[2]; qualitative observational data
  quality of life (observational): reduced sleep disturbances, improved saliva control, and decreased caregiver burden
[2]; therapist and caregiver observation
  cognitive and motor functions: notable gains in cognitive and motor functions
CDKL2; control group mean 5.44307×10^−6 (±2.26749×10^−6)
  patient's CDKL2 expression level: 1.7356×10^−5 (±1.302×10^−6)
CDKL2; treated patient compared to healthy donor controls
  increase in the expression of CDKL2 vs healthy donor controls: 3 fold
[3]
  phosphorylation of key synaptic proteins, including EB2 (MAPRE2): increased phosphorylation
[4]
  CDKL2 expression in the hippocampal and cortical regions: notable increase in CDKL2 expression
  GluN2B subunit mislocalization: partially corrected
[5]
  solubility: approximately 0.1 mg/ml
CDKL5-deficient mice [6]; Het mice treated vs untreated Het mice, 30 mg/kg/day oral (FIG. 8)
  marble burying capacity: improvement in marble burying capacity
CDKL5-deficient mice [6]; inferred from the behavioral findings in CDKL5-deficient mice
  crossing of the blood brain barrier: crosses the blood brain barrier
[7]; 10 mg/kg/day
  patients demonstrating a decrease in seizure severity by at least one grade (Modified Rankin Scale): 75 % of patients
  patients reporting improvements in sleep patterns, motor skills, and cognitive function (CDKL5-QoL): 87.5 % of patients
[7]; clinical trial conclusions
  speech and motor delays: did not show marked improvements
[7]; eight patients aged 2 to 10 years, 10 mg/kg/day oral BID adjunct, 9 months, baseline on average 12 times per week
  mean reduction in major motor seizures: 63.2%
CDKL5 Het female mice
  reduction in seizure duration: 65%
  reduction in seizure severity: 72.5%
[8]; Het female mice brain, 30 mg/kg/day, vs untreated controls, not statistically significant (FIG. 2)
  phosphorylated EB2 isoforms 1 and 2 at ps222: trend towards increased phosphorylation
[8]; Het female mice brain, 30 mg/kg/day, did not reach statistical significance (FIG. 3)
  phosphorylated EB2 isoform 3 at ps222: trend toward increased phosphorylation
[8]; KO male and Het female mice, 30 mg/kg/day in drinking water
  EB2 phosphorylation levels: increased EB2 phosphorylation levels
